Experimental data: patent US9828369B2, “Isoquinoline derivatives useful as inhibitors of diacylglyceride O-acyltransferase 2” (Merck Sharp & Dohme Corp., priority 2014, dated 2017)
Read-outs that look alike come from different tables or passages of the source.

Biological target: hDGAT2 (Homo sapiens (Human), UniProt Q96PD7)
Assay: DGAT2 enzymatic activity assay (triolein formation, LC/MS/MS)
[1] = read-out: IC50 values for inhibition of DGAT2, membrane prep of Sf-9 cells expressing hDGAT2, 25 μM diolein, 10 μM oleoyl-CoA, room temperature, triolein by LC/MS/MS

Sequence of hDGAT2 (Q96PD7 whole entry): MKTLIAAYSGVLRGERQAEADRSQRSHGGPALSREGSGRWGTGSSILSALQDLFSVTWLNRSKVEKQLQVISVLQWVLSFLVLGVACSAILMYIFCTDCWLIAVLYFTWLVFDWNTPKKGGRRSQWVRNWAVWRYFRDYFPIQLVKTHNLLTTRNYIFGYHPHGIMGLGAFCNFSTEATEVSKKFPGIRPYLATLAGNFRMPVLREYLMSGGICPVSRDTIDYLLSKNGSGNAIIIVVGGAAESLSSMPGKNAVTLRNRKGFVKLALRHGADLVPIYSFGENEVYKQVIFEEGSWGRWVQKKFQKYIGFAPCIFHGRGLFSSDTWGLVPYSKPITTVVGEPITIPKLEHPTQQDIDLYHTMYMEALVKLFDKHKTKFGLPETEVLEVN

IC50 [nM]	IC50 [1] [nM]	Compound
373		CC[C@H](C(=O)NCc1ccc(-c2cccc(OC)c2)c2ccncc12)c1ccc(C(F)(F)F)c(F)c1 (racemic) [Example 126, (R/S)-2-(3-fluoro-4-(trifluoromethyl)phenyl)-N-((5-(3-methoxyphenyl)isoquinolin-8-yl)methyl)butanamide]
118		COc1cccc(-c2ccc(CNC(=O)[C@H](C)c3ccc4cc(OC)ccc4c3)c3cnccc23)c1 (racemic) [Example 142, (R/S)-2-(6-methoxynaphthalen-2-yl)-N-((5-(3-methoxyphenyl)isoquinolin-8-yl)methyl)propanamide]
	3470	N#Cc1cccc(-c2ccc(CNC(=O)[C@@H]3C[C@H]3c3ccccc3)c3cnccc23)c1 (relative stereo) [Example 16, (trans)-N-((5-(3-cyanophenyl)isoquinolin-8-yl)methyl)-2-phenylcyclopropanecarboxamide]
	589	COc1ccc([C@@H]2C[C@@H]2C(=O)NCc2ccc(-c3cccc(OC)c3)c3ccncc23)cc1 (relative stereo) [Example 24, (cis)-2-(4-methoxyphenyl)-N-((5-(3-methoxyphenyl)isoquinolin-8-yl)methyl)cyclopropanecarboxamide]
	589	COc1cccc(-c2ccc(CNC(=O)[C@H]3C[C@@H]3c3nc(C)no3)c3cnccc23)c1 (relative stereo) [Example 108, (trans)-N-((5-(3-methoxyphenyl)isoquinolin-8-yl)methyl)-2-(3-methyl-1,2,4-oxadiazol-5-yl) cyclopropanecarboxamide]
	82.7	COC(=O)c1cccc(-c2ccc(CNC(=O)[C@@H]3C[C@H]3c3ccccc3)c3cnccc23)c1 [Example 3, methyl 3-(8-(((1R,2R)-2-phenylcyclopropanecarboxamido)methyl)isoquinolin-5-yl)benzoate]
	96.5	COC(=O)c1cccc(-c2ccc(CNC(=O)C3CC3c3nc(C)no3)c3cnccc23)c1 (stereo not shown) [Example 4, methyl 3-(8-((2-(3-methyl-1,2,4-oxadiazol-5-yl)cyclopropane-carboxamido)methyl)isoquinolin-5-yl)benzoate]
	100	COC(=O)c1cccc(-c2ccc(CNC(=O)C3CCN(c4ccc(C(F)(F)F)cc4)CC3)c3cnccc23)c1 [Example 5, methyl 3-(8-((1-(4-(trifluoromethyl)phenyl)piperidine-4-carboxamido)methyl)isoquinolin-5-yl)benzoate]
	111	COC(=O)c1cccc(-c2ccc(CNC(=O)c3cc(C(C)(C)C)nn3C)c3cnccc23)c1 [Example 7, methyl 3-(8-((3-(tert-butyl)-1-methyl-1H-pyrazole-5-carboxamido)methyl)isoquinolin-5-yl)benzoate]
	162	COC(=O)c1cccc(-c2ccc(CNC(=O)C3CC34CCCC4)c3cnccc23)c1 (stereo not shown) [Example 10, methyl 3-(8-((spiro[2.4]heptane-1-carboxamido)methyl)isoquinolin-5-yl)benzoate]
	1230	COC(=O)c1cccc(-c2ccc(CNC(=O)c3ccnn3C)c3cnccc23)c1 [Example 13, methyl 3-(8-((1-methyl-1H-pyrazole-5-carboxamido)methyl)isoquinolin-5-yl)benzoate]
	115	CCOc1cccc(-c2ccc(CNC(=O)C3CC3c3ccccc3)c3cnccc23)c1 (stereo not shown) [Example 15, N-((5-(3-ethoxyphenyl)isoquinolin-8-yl)methyl)-2-phenylcyclopropanecarboxamide]
	278	COCc1cccc(-c2ccc(CNC(=O)C3CC3c3ccccc3)c3cnccc23)c1 (stereo not shown) [Example 18, N-((5-(3-(methoxymethyl)phenyl)isoquinolin-8-yl)methyl)-2-phenylcyclopropanecarboxamide]
	1860	CC(C)OC(=O)c1cccc(-c2ccc(CNC(=O)C3CC3c3ccccc3)c3cnccc23)c1 (stereo not shown) [Example 20, isopropyl 3-(8-((2-phenylcyclopropanecarboxamido)methyl)isoquinolin-5-yl)benzoate]
	2050	COc1cccc(-c2ccc(CNC(=O)c3cc(C4CC4)on3)c3cnccc23)c1 [Example 26, 5-cyclopropyl-N-((5-(3-methoxyphenyl)isoquinolin-8-yl)methyl)isoxazole-3-carboxamide]
	1770	COc1cccc(-c2ccc(CNC(=O)c3cc(C(F)(F)F)n[nH]3)c3cnccc23)c1 [Example 29, N-((5-(3-methoxyphenyl)isoquinolin-8-yl)methyl)-3-(trifluoromethyl)-1H-pyrazole-5-carboxamide]
	818	COc1cccc(-c2ccc(CNC(=O)CCc3nc(-c4ccccc4)no3)c3cnccc23)c1 [Example 30, N-((5-(3-methoxyphenyl)isoquinolin-8-yl)methyl)-3-(3-phenyl-1,2,4-oxadiazol-5-yl)propanamide]
	883	COc1cccc(-c2ccc(CNC(=O)Cc3cccc(Cl)c3Cl)c3cnccc23)c1 [Example 31, 2-(2,3-dichlorophenyl)-N-((5-(3-methoxyphenyl)isoquinolin-8-yl)methyl)acetamide]
	2010	COc1cccc(-c2ccc(CNC(=O)c3cccc4cccnc34)c3cnccc23)c1 [Example 32, N-((5-(3-methoxyphenyl)isoquinolin-8-yl)methyl)quinoline-8-carboxamide]

Second part, the compound before the results:

Compound	IC50 [nM]	IC50 [1] [nM]
COc1cccc(-c2ccc(CNC(=O)[C@@H]3COC(c4ccccc4)=N3)c3cnccc23)c1 (racemic) [Example 42, (R/S)-N-((5-(3-methoxyphenyl)isoquinolin-8-yl)methyl)-2-phenyl-4,5-dihydrooxazole-4-carboxamide]	3550	
COc1cccc(-c2ccc(CNC(=O)[C@H](C)c3ccc(CC(C)C)cc3)c3cnccc23)c1 (racemic) [Example 146, (R/S)-2-(4-isobutylphenyl)-N-((5-(3-methoxyphenyl)isoquinolin-8-yl)methyl)propanamide]	923	
COc1cccc(-c2ccc(CNC(=O)[C@@H]3C[C@@H]3c3ccc(C(F)(F)F)cc3)c3cnccc23)c1 (relative stereo) [Example 144, (cis)-N-((5-(3-methoxyphenyl)isoquinolin-8-yl)methyl)-2-(4-(trifluoromethyl)phenyl) cyclopropanecarboxamide]		2560
COC(=O)c1cccc(-c2ccc(CNC(=O)Cc3ccc(C(F)(F)F)cc3)c3cnccc23)c1 [Example 2, methyl 3-(8-((2-(4-(trifluoromethyl)phenyl)acetamido)methyl)isoquinolin-5-yl)benzoate]		85.6
COC(=O)c1cccc(-c2ccc(CNC(=O)Cc3ccc(Oc4ccccc4)cc3)c3cnccc23)c1 [Example 6, methyl 3-(8-((2-(4-phenoxyphenyl)acetamido)methyl)isoquinolin-5-yl)benzoate]		101
COC(=O)c1cccc(-c2ccc(CNC(=O)c3cnn(-c4ccccc4)c3C(F)(F)F)c3cnccc23)c1 [Example 8, methyl 3-(8-((1-phenyl-5-(trifluoromethyl)-1H-pyrazole-4-carboxamido)methyl)isoquinolin-5-yl)benzoate]		123
CCCc1cc(C(=O)NCc2ccc(-c3cccc(C(=O)OC)c3)c3ccncc23)n(C)n1 [Example 9, methyl 3-(8-((1-methyl-3-propyl-1H-pyrazole-5-carboxamido)methyl)isoquinolin-5-yl)benzoate]		132
COC(=O)c1cccc(-c2ccc(CNC(=O)c3nccc4ccccc34)c3cnccc23)c1 [Example 11, 8-((isoquinoline-1-carboxamido)methyl)-5-(3-(methoxycarbonyl)phenyl) isoquinolin-2-ium]	163	
COC(=O)c1cccc(-c2ccc(CNC(=O)c3cccc4cnccc34)c3cnccc23)c1 [Example 12, 8-((isoquinoline-5-carboxamido)methyl)-5-(3-(methoxycarbonyl)phenyl) isoquinolin-2-ium]		196
CCOC(=O)c1cccc(-c2ccc(CNC(=O)C3CC3c3ccccc3)c3cnccc23)c1 (stereo not shown) [Example 14, ethyl 3-(8-((2-phenylcyclopropanecarboxamido)methyl)isoquinolin-5-yl)benzoate]		71
O=C(NCc1ccc(-c2cccc(OC(F)(F)F)c2)c2ccncc12)C1CC1c1ccccc1 (stereo not shown) [Example 17, 2-phenyl-N-((5-(3-(trifluoromethoxy)phenyl)isoquinolin-8-yl)methyl)cyclopropanecarboxamide]		3760
CC(C)Oc1cccc(-c2ccc(CNC(=O)C3CC3c3ccccc3)c3cnccc23)c1 (stereo not shown) [Example 19, N-((5-(3-isopropoxyphenyl)isoquinolin-8-yl)methyl)-2-phenylcyclopropanecarboxamide]		888
NC(=O)c1cccc(-c2ccc(CNC(=O)C3CC3c3ccccc3)c3cnccc23)c1 (stereo not shown) [Example 22, 3-(8-((2-phenylcyclopropanecarboxamido)methyl)isoquinolin-5-yl)benzamide]		6270
COc1ccc([C@H]2C[C@@H]2C(=O)NCc2ccc(-c3cccc(OC)c3)c3ccncc23)cc1 [Example 23, (1S,2S)-2-(4-methoxyphenyl)-N-((5-(3-methoxyphenyl)isoquinolin-8-yl)methyl)cyclopropanecarboxamide]		9960
COc1cccc(-c2ccc(CNC(=O)CC(c3ccccc3)c3ccco3)c3cnccc23)c1 (stereo not shown) [Example 27, 3-(furan-2-yl)-N-((5-(3-methoxyphenyl)isoquinolin-8-yl)methyl)-3-phenylpropanamide]		6830
COc1cccc(-c2ccc(CNC(=O)c3cncc(Br)c3)c3cnccc23)c1 [Example 28, 5-bromo-N-((5-(3-methoxyphenyl)isoquinolin-8-yl)methyl)nicotinamide]		3930
COc1cccc(-c2ccc(CNC(=O)c3cncc4ccccc34)c3cnccc23)c1 [Example 33, N-((5-(3-methoxyphenyl)isoquinolin-8-yl)methyl)isoquinoline-4-carboxamide]		3410
COc1cccc(-c2ccc(CNC(=O)c3cccc(-n4cccn4)c3)c3cnccc23)c1 [Example 34, N-((5-(3-methoxyphenyl)isoquinolin-8-yl)methyl)-3-(1H-pyrazol-1-yl)benzamide]		7360
